Laboratory results from publication PMC6396024, “Artemin and an Artemin-Derived Peptide, Artefin, Induce Neuronal Survival, and Differentiation Through Ret and NCAM” (Frontiers in Molecular Neuroscience, 2019).
Bridge positions count the residues as written; N and C are the ends. Ends that are not written are not given here. I, II: the chains in the order shown.

What was measured:
[1] = test system: RET; cerebellar granule neurons (CGNs); test: Neurite outgrowth in CGNs transfected with dominant negative RET (dnRET); assay type: cell-based, Wistar rat; settings: 24 h, P2-d 8 μg/ml, ARTN 0.21 nM, artefin 1.4 μM; for neurite outgrowth in mock-transfected neurons: empty vector, versus control
Method: (§1) Cerebellar granule neurons (CGNs) were prepared from 7-day-old Wistar rat pups (Charles River Laboratories, Sulzfeld, Germany) as previously described ([Schousboe et al., 1989]). Briefly, pups were decapitated, and the cerebellum was removed and cleared from blood vessels and meninges in ice-cold modified Krebs-Ringer buffer. The cerebellum was dissociated by chopping and trypsinization. Cells were washed in Krebs-Ringer buffer containing DNAse I (Sigma, St. Louis, MO, United States) and soybean trypsin inhibitor (Sigma) to stop trypsinization, and the remaining tissue pieces were pelleted by centrifugation. Cells were then washed in Krebs-Ringer buffer containing Ca^2+ and Mg^2+ and re-suspended in appropriate Neurobasal^TM medium (Invitrogen, Taastrup, Denmark) with supplements depending on the experiment.
To evaluate the involvement of NCAM and RET in neurite outgrowth induced by either ARTN or artefin, CGNs (3 × 10^6 per transfection) were transfected with 3 μg DNA using a Nucleofector^TM 2b device and a Rat Neuron Nucleofector Kit (Amaxa, Inc., Gaithersburg, MD, United States). A kinase-deleted dominant negative RET insert was obtained by direct PCR using a commercially available clone (IRAKp961P02132Q; RZPD, Berlin, Germany) encoding full-length mouse RET coding sequence 586–3807 nt. as template. The upper primer […] contained a NheI restriction site and Kozak sequence, and the lower primer […] encoded Streptag II and NotI restriction sites. The dominant negative RET insert and the pcDNA5/FRT expression vector containing the Flp-In system were cut with NheI and NotI restriction enzymes, purified, ligated using the Rapid DNA Ligation Kit (Roche, Basel, Switzerland), and transfected into One Shot TOP10 E. coli (Invitrogen, Taastrup, Denmark). E. coli colonies containing the dominant negative RET insert were identified by PCR, and one insert-positive colony was used for plasmid purification. The identity of the purified plasmid was verified by restriction cutting and sequencing of the insert. For NCAM knock down, we used a pENTR vector containing the shRNA expression cassette for NCAM knock down ([Hansen et al., 2007]). An empty vector was used as a control. To identify transfected neurons, all transfections were performed as co-transfections with 0.5 μg pEGFP-N1, an expression vector encoding the enhanced variant of green fluorescent protein (GFP; Clontech, Palo Alto, CA, United States). Transfected CGNs were seeded in Neurobasal^TM-A medium supplemented with 2% (v/v) B27, 5% (v/v) FCS, and 2 mM Glutamax at a density of 1 × 10^5 cells/cm^2.
To estimate neurite outgrowth, neurons were fixated 24 h after stimulation and stained with rabbit anti-growth-associated-protein-43 (GAP-43) antibody (Chemicon International, Inc., Temecula, CA, United States) or anti-GFP antibody (for transfection experiment) overnight at 4°C followed by incubation with secondary Alexa-conjugated goat anti-rabbit antibodies (Invitrogen, Taastrup, Denmark). In case of experiments with plasmid transfection, the transfection efficiency was ca. 20% of total cells and the neurite outgrowth was evaluated only in GFP-positive, i.e., transfected, cells. For representative pictures, cells were additionally co-stained with Hoechst 33258.
Computer-assisted fluorescent microscopy was performed using a Nikon Diaphot 300 inverted microscope (Nikon) equipped with a Nikon Plan 20× objective and coupled to a video camera (Grundig Electronics, Germany). For each condition in each experiment, including the experiment with transfections, images of approximately 200 cells were recorded in systematic series of fields of view, and neurite outgrowth was quantified using a stereological approach as previously described ([Rønn et al., 2000]).
FIGURE 7 Neuritogenic effect of ARTN and artefin in (A) dominant negative RET or (B) knock down NCAM-expressing CGNs. […]

[2] = test system: cerebellar granule neurons (CGNs); test: Survival assay of CGNs induced to undergo apoptosis by potassium withdrawal; assay type: cell-based, Wistar rat; settings: for neuronal survival in apoptotic medium: 48 h, 5 mM KCl, serially diluted ARTN or artefin, paired t-test; for maximal neuroprotective effect / maximum level of neuronal survival: control 40 mM KCl = 100%, mean of five experiments
Method: as §1
Cerebellar granule neurons were re-suspended in Neurobasal^TM-A medium supplemented with 2% (v/v) B27 (Invitrogen, Taastrup, Denmark), 0.5% (v/v) glutamax, 100 U/ml penicillin, 100 μg/ml streptomycin, and 40 mM KCl, and seeded at a density of 1 × 10^5 cells/well in 8-well LabTek Permanox chamber slides (Nunc, Roskilde, Denmark) coated with poly-L-lysine (10 μg/ml). To avoid proliferation of non-neuronal cells, cytosine-β-D-arabinofuranoside (Sigma) was added to cells 24 h after plating. CGNs were allowed to differentiate for 7 days in vitro (DIV) in the presence of 40 mM KCl before being induced to undergo apoptosis by changing the medium to one containing only 5 mM KCl (apoptotic medium) ([D’Mello et al., 1993]). At 7 DIV, cells were washed and stimulated with serially diluted ARTN or artefin diluted in the apoptotic medium. Three different controls were included; (1) cells grown in medium containing 40 mM KCl served as a positive control; (2) cells grown in medium containing 5 mM KCl served as a negative control; (3) cells grown in medium containing 5 mM KCl supplemented with 50 ng/ml insulin growth factor-1 (IGF-1) (Life Technology), a known anti-apoptotic factor for CGNs in this setup ([Galli et al., 1995]). After 48 h following the induction of apoptosis, cells were fixated in 4% formaldehyde for 30 min, and nuclear morphology was visualized with Hoechst 33258 staining (Invitrogen, Taastrup, Denmark) (Figure 2A). Images of cells were obtained using a Nikon Diaphot 200 fluorescent microscope equipped with a Nikon Plan 40× objective (Nikon, Tokyo, Japan) and coupled to a black-white video camera. Images of at least 1000 cells/well in different fields of view were analyzed, and the percentage of viable neurons was estimated as the ratio of live cells (non-pyknotic cells with dispersed chromatin) to the total number of neurons.
FIGURE 2 Effect of ARTN and artefin on survival of cerebellar granular neurons (CGNs) induced to undergo apoptosis. CGNs were differentiated for 7 days in the presence of 40 mM KCl before apoptosis was induced by potassium withdrawal. (A) Nuclear morphology of CGNs after Hoechst 33258 staining. […] Scale bar: 100 μm. Cells were grown for 48 h in media, containing 40 mM KCl, apoptotic medium (5 mM KCl) or apoptotic medium supplemented with 50 ng/ml IGF-1 (positive control) (B), serially diluted ARTN (C), or artefin (D). Each experiment was performed in the presence of the three controls (40 mM KCl, 5 mM KCl, and 5 mM KCl plus IGF-1), and the survival effect of the growth factor and the peptide was compared to its own apoptotic control (5 mM KCl). Results from the five experiments are expressed as percentage of 40 mM KCl control set at 100% and presented as mean ± SEM. The anti-apoptotic effect of ARTN and artefin was tested using Student’s paired t-test, where ^∗p < 0.05; ^∗∗p < 0.01; ^∗∗∗p < 0.001; ^∗∗∗∗p < 0.0001.

[3] = 48 h in apoptotic medium (5 mM KCl)

Row | Molecule | neurite outgrowth in dnRET-transfected neurons [1] | neurite outgrowth in mock-transfected neurons [1] | neuronal survival in apoptotic medium [2] | concentration of maximum neuronal survival [2, 3] | maximal neuroprotective effect / maximum level of neuronal survival [2, 3] | concentration of maximal neuroprotective effect [2, 3]
1 | I: RSPHDLSLASLLGAGKK-NH2 / II: RSPHDLSLASLLGAGK / III: RSPHDLSLASLLGAG / IV: RSPHDLSLASLLGAG (amide I:16-IV:C, I:17-II:C, II:16-III:C; C-terminus assumed) [artefin] | abrogated in dnRET-transfected neurons (p < 0.01 versus artefin alone | significantly increased neurite outgrowth in mock-transfected neurons (p < 0.01 versus control) | significantly promoted neuronal survival | 0.156 µM | 72.95 % of control | 
2 | recombinant human Artemin (ARTN) (ligand, UniProt Q5T4W7 108-220, looked up, Artemin (ARTN), human, UniProt D3DPX9; source: bought: R&D Systems) AGGPGSRARAAGARGCRLRSQLVPVRALGLGHRSDELVRFRFCSGSCRRARSPHDLSLASLLGAGALRPPPGSRPVSQPCCRPTRYEAVSFMDVNSTWRTVDRLSATACGCLG | abolished in neurons expressing dnRET (p < 0.05 versus ARTN alone | significantly increased by ARTN in mock-transfected neurons (p < 0.05 versus control) | promoted the survival of CGNs in culture in a dose-dependent manner |  | 68.3 % of control | 4 pM
